Key:
Assay type in all cases: in vivo
[1] = tested on: Bean Rust (Uromyces appendiculatus); experiment: Greenhouse control of bean rust, second experiment; conditions: common bean, 10 days after infection (200 k conidia/ml), RTI472 and SERENADE OPTIMUM 1×10^8 cfu/ml, Tebuconazole 50 g a.i./ha, Chlorothalonil 500 g a.i./ha, non-treated 23% disease
[2] = tested on: Pepper Botrytis Blight (Botrytis cinerea); experiment: Greenhouse control of Pepper Botrytis Blight; conditions: 7 days after infection (1M conidia/ml), RTI472 and SERENADE OPTIMUM 1×10^8 cfu/ml, Tebuconazole 50 g a.i./ha, Chlorothalonil 500 g a.i./ha, non-treated 6% disease
[3] = tested on: Soybean Powdery Mildew (Microsphaera diffusa); experiment: Greenhouse control of soybean powdery mildew; conditions: 9 days after placing between infected flats, 1×10^8 cfu/ml, Tebuconazole (HORIZON) 50 g a.i./ha, non-treated 70% disease
[4] = tested on: Pepper Botrytis Blight (Botrytis cinerea); experiment: Greenhouse dose response for control of Pepper Botrytis Blight; conditions: 3 days after infection (1M conidia/ml), 50 g a.i./ha
[5] = tested on: Pepper Botrytis Blight (Botrytis cinerea); experiment: Greenhouse control of Pepper Botrytis Blight at varying pathogen inoculation rates; conditions: 4 days after infection, biologicals 1 × 10^8, Tebuconazole 50 g a.i./ha, non-treated 65% disease

Structure (SMILES)	Percent Disease Control [1]	Percent Disease Control [2]	Percent Disease Control [3]	Percent Disease Control [4]	Percent Disease Control ([5]; inoculum 1M conidia/ml)	Percent Disease Control ([5]; inoculum 2M conidia/ml)
N#Cc1c(Cl)c(Cl)c(Cl)c(C#N)c1Cl [Chlorothalonil]	100 a Percent	99 a Percent				
CC(C)(C)C(O)(CCc1ccc(Cl)cc1)Cn1cncn1 (centres unmarked) [Tebuconazole]	100 a Percent	99 a Percent	100 a Percent	100 a Percent	100 a Percent	94 a Percent
